# Test system: SARS-CoV-2 variants (TX7-501, TY8-612, QHN001, K1734, K5356)
# Type: cell-based
# Conditions: variants of Table 4 instead of WK-521; data not shown
smiles,measurement,value
"CC(C)(C)[C@H](NC(=O)C(F)(F)F)C(=O)N1C[C@H]2[C@@H]([C@H]1C(=O)N[C@@H](C[C@@H]1CCNC1=O)C(=O)c1nc3c(F)cccc3s1)C2(C)C [Compound 245, (1R,2S,5S)-3-((S)-3,3-dimethyl-2-(2,2,2-trifluoroacetamido)butanoyl)-N-((S)-1-(4-fluorobenzo[d]thiazol-2-yl)-1-oxo-3-((S)-2-oxopyrrolidin-3-yl)propan-2-yl)-6,6-dimethyl-3-azabicyclo[3.1.0]hexane-2-carboxamide]",antiviral activity against variants,excellent antiviral activities
